# Measured values reported in ChEMBL document CHEMBL4311999, “3-Hydrazinoisatin-based benzenesulfonamides as novel carbonic anhydrase inhibitors endowed with anticancer activity: Synthesis, in vitro biological evaluation and in silico insights” (Eur J Med Chem, 2019).
# Key:
# Carbonic anhydrase 9 [1] = target: T1, Carbonic anhydrase 9 (Homo sapiens, UniProt Q16790); test: Inhibition of recombinant human carbonic anhydrase 9 preincubated for 15 mins by phenol red dye based stopped flow CO2 hydration assay
# Carbonic anhydrase 12 = Carbonic anhydrase 12 (Homo sapiens, UniProt O43570); test: Inhibition of recombinant human carbonic anhydrase 12 preincubated for 15 mins by phenol red dye based stopped flow CO2 hydration assay
# Carbonic anhydrase 1 = Carbonic anhydrase 1 (Homo sapiens, UniProt P00915); test: Inhibition of recombinant human carbonic anhydrase 1 preincubated for 15 mins by phenol red dye based stopped flow CO2 hydration assay
# Carbonic anhydrase 2 = Carbonic anhydrase 2 (Homo sapiens, UniProt P00918); test: Inhibition of recombinant human carbonic anhydrase 2 preincubated for 15 mins by phenol red dye based stopped flow CO2 hydration assay
# Carbonic anhydrase 9 [2] = target: T1, Carbonic anhydrase 9; details: at 0.1 µM
# Description: Inhibition of recombinant human carbonic anhydrase 9 at 0.1 uM preincubated for 15 mins by phenol red dye based stopped flow CO2 hydration assay (Rvb = 0%)
# Carbonic anhydrase 9 [3] = target: T1, Carbonic anhydrase 9; details: at 0.01 µM
# Description: Inhibition of recombinant human carbonic anhydrase 9 at 0.01 uM preincubated for 15 mins by phenol red dye based stopped flow CO2 hydration assay (Rvb = 0%)
# Carbonic anhydrase 9 [4] = target: T1, Carbonic anhydrase 9; details: at 1 nM
# Carbonic anhydrase 9 [5] = target: T1, Carbonic anhydrase 9; details: at 1 µM
# Description: Inhibition of recombinant human carbonic anhydrase 9 at 1 uM preincubated for 15 mins by phenol red dye based stopped flow CO2 hydration assay (Rvb = 0%)
# BT-549 = test: Growth inhibition of human BT549 cells at 10 uM incubated for 48 hrs by sulforhodamine B assay relative to control; format: functional; details: BT-549, 48 h, read-out: GI
# SF-539 = test: Growth inhibition of human SF539 cells at 10 uM incubated for 48 hrs by sulforhodamine B assay relative to control; format: functional; details: SF-539, 48 h, read-out: GI
# EKVX = test: Growth inhibition of human EKVX cells at 10 uM incubated for 48 hrs by sulforhodamine B assay relative to control; format: functional; details: read-out: GI
# MDA-MB-468 = test: Growth inhibition of human MDA-MB-468 cells at 10 uM incubated for 48 hrs by sulforhodamine B assay relative to control; format: functional; details: MDA-MB-468, 48 h, read-out: GI
# RPMI-8226 = test: Growth inhibition of human RPMI8226 cells at 10 uM incubated for 48 hrs by sulforhodamine B assay relative to control; format: functional; details: RPMI-8226, 48 h, read-out: GI
# ACHN = test: Growth inhibition of human ACHN cells at 10 uM incubated for 48 hrs by sulforhodamine B assay relative to control; format: functional; details: read-out: GI
# TK-10 = test: Growth inhibition of human TK10 cells at 10 uM incubated for 48 hrs by sulforhodamine B assay relative to control; format: functional; details: TK-10, 48 h, read-out: GI
# UACC-62 = test: Growth inhibition of human UACC62 cells at 10 uM incubated for 48 hrs by sulforhodamine B assay relative to control; format: functional; details: UACC-62, 48 h, read-out: GI
# A549 = test: Growth inhibition of human A549/ATCC cells at 10 uM incubated for 48 hrs by sulforhodamine B assay relative to control; format: functional; details: A549, 48 h, read-out: GI
# HCT-116 = test: Growth inhibition of human HCT116 cells at 10 uM incubated for 48 hrs by sulforhodamine B assay relative to control; format: functional; details: HCT-116, 48 h, read-out: GI
# OVCAR-5 = test: Growth inhibition of human OVCAR5 cells at 10 uM incubated for 48 hrs by sulforhodamine B assay relative to control; format: functional; details: OVCAR-5, 48 h, read-out: GI
# MCF7 = test: Growth inhibition of human MCF7 cells at 10 uM incubated for 48 hrs by sulforhodamine B assay relative to control; format: functional; details: MCF7, 48 h, read-out: GI
# OVCAR-8 = test: Growth inhibition of human OVCAR8 cells at 10 uM incubated for 48 hrs by sulforhodamine B assay relative to control; format: functional; details: OVCAR-8, 48 h, read-out: GI
# NCI-H226 = test: Growth inhibition of human NCI-H226 cells at 10 uM incubated for 48 hrs by sulforhodamine B assay relative to control; format: functional; details: NCI-H226, 48 h, read-out: GI
# K562 = test: Growth inhibition of human K562 cells at 10 uM incubated for 48 hrs by sulforhodamine B assay relative to control; format: functional; details: K562, 48 h, read-out: GI
# HCT-15 = test: Growth inhibition of human HCT15 cells at 10 uM incubated for 48 hrs by sulforhodamine B assay relative to control; format: functional; details: HCT-15, 48 h, read-out: GI
# T47D = test: Growth inhibition of human T47D cells at 10 uM incubated for 48 hrs by sulforhodamine B assay relative to control; format: functional; details: read-out: GI
# CCRF-CEM = test: Growth inhibition of human CCRF-CEM cells at 10 uM incubated for 48 hrs by sulforhodamine B assay relative to control; format: functional; details: read-out: GI
# SNB-75 = test: Growth inhibition of human SNB75 cells at 10 uM incubated for 48 hrs by sulforhodamine B assay relative to control; format: functional; details: SNB-75, 48 h, read-out: GI
# NCI-H460 = test: Growth inhibition of human NCI-H460 cells at 10 uM incubated for 48 hrs by sulforhodamine B assay relative to control; format: functional; details: NCI-H460, 48 h, read-out: GI
# MDA-MB-231 = test: Growth inhibition of human MDA-MB-231 cells at 10 uM incubated for 48 hrs by sulforhodamine B assay relative to control; format: functional; details: MDA-MB-231, 48 h, read-out: GI
# PC-3 = test: Growth inhibition of human PC3 cells at 10 uM incubated for 48 hrs by sulforhodamine B assay relative to control; format: functional; details: PC-3, 48 h, read-out: GI
# RXF 393 = test: Growth inhibition of human RXF393 cells at 10 uM incubated for 48 hrs by sulforhodamine B assay relative to control; format: functional; details: RXF 393, 48 h, read-out: GI
# NCI-H522 = test: Growth inhibition of human NCI-H522 cells at 10 uM incubated for 48 hrs by sulforhodamine B assay relative to control; format: functional; details: NCI-H522, 48 h, read-out: GI
# UO-31 = test: Growth inhibition of human UO31 cells at 10 uM incubated for 48 hrs by sulforhodamine B assay relative to control; format: functional; details: UO-31, 48 h, read-out: GI
# MOLT-4 = test: Growth inhibition of human MOLT4 cells at 10 uM incubated for 48 hrs by sulforhodamine B assay relative to control; format: functional; details: MOLT-4, 48 h, read-out: GI
# HOP-62 = test: Growth inhibition of human HOP62 cells at 10 uM incubated for 48 hrs by sulforhodamine B assay relative to control; format: functional; details: HOP-62, 48 h, read-out: GI
# NCI/ADR-RES = test: Growth inhibition of human NCI/ADR-RES cells at 10 uM incubated for 48 hrs by sulforhodamine B assay relative to control; format: functional; details: read-out: GI
# CAKI-1 = test: Growth inhibition of human Caki1 cells at 10 uM incubated for 48 hrs by sulforhodamine B assay relative to control; format: functional; details: CAKI-1, 48 h, read-out: GI
# A498 = test: Growth inhibition of human A498 cells at 10 uM incubated for 48 hrs by sulforhodamine B assay relative to control; format: functional; details: A498, 48 h, read-out: GI
# SK-OV-3 = test: Growth inhibition of human SKOV3 cells at 10 uM incubated for 48 hrs by sulforhodamine B assay relative to control; format: functional; details: SK-OV-3, 48 h, read-out: GI
# OVCAR-4 = test: Growth inhibition of human OVCAR4 cells at 10 uM incubated for 48 hrs by sulforhodamine B assay relative to control; format: functional; details: OVCAR-4, 48 h, read-out: GI
# DU-145 = test: Growth inhibition of human DU145 cells at 10 uM incubated for 48 hrs by sulforhodamine B assay relative to control; format: functional; details: DU-145, 48 h, read-out: GI
# KM12 = test: Growth inhibition of human KM12 cells at 10 uM incubated for 48 hrs by sulforhodamine B assay relative to control; format: functional; details: KM12, 48 h, read-out: GI
# SW-620 = test: Growth inhibition of human SW620 cells at 10 uM incubated for 48 hrs by sulforhodamine B assay relative to control; format: functional; details: SW-620, 48 h, read-out: GI
# IGROV-1 = test: Growth inhibition of human IGROV1 cells at 10 uM incubated for 48 hrs by sulforhodamine B assay relative to control; format: functional; details: IGROV-1, 48 h, read-out: GI
# 786-0 = test: Growth inhibition of human 786-0 cells at 10 uM incubated for 48 hrs by sulforhodamine B assay relative to control; format: functional; details: 786-0, 48 h, read-out: GI
# Sequence of Carbonic anhydrase 1 (P00915 whole entry): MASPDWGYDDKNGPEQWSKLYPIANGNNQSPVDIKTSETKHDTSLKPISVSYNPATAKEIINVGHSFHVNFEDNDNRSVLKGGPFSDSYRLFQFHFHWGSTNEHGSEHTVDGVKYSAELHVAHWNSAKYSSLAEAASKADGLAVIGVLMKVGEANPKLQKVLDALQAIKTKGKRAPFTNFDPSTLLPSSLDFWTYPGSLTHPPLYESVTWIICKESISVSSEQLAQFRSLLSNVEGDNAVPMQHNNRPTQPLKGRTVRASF
# Sequence of Carbonic anhydrase 12 (O43570 whole entry): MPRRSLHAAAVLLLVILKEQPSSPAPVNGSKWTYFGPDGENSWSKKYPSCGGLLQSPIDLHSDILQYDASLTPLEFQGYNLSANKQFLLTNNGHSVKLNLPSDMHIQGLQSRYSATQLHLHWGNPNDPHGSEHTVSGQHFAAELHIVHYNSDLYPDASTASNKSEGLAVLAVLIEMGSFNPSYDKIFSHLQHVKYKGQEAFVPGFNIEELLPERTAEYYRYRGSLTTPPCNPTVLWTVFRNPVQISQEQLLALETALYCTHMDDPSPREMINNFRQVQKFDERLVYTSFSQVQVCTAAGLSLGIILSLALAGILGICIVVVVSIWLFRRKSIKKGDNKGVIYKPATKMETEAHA
smiles,measurement,setting,value
CCCN1C(=O)/C(=N\Nc2ccc(S(N)(=O)=O)cc2)c2cc(Cl)ccc21,Ki,Carbonic anhydrase 9 [1],13.1 nM
NS(=O)(=O)c1ccc(N/N=C2\C(=O)Nc3ccc(Cl)cc32)cc1 [GW280670X],Ki,Carbonic anhydrase 9 [1],8.3 nM
same,Ki,Carbonic anhydrase 12,11.9 nM
same,Ki,Carbonic anhydrase 1,1810 nM
same,Ki,Carbonic anhydrase 2,35.9 nM
CN1C(=O)/C(=N\Nc2ccc(S(N)(=O)=O)cc2)c2ccccc21,inhibition,Carbonic anhydrase 9 [2],75%
same,Ki,Carbonic anhydrase 9 [1],9.4 nM
same,inhibition,Carbonic anhydrase 9 [3],51%
same,inhibition,Carbonic anhydrase 9 [4],17%
same,inhibition,Carbonic anhydrase 9 [5],81%
CCCN1C(=O)/C(=N\Nc2ccc(S(N)(=O)=O)cc2)c2cc(Br)ccc21,inhibition of growth at 10 µM,BT-549,10%
same,inhibition of growth at 10 µM,SF-539,13%
same,inhibition of growth at 10 µM,EKVX,11%
same,inhibition of growth at 10 µM,MDA-MB-468,14%
same,Ki,Carbonic anhydrase 9 [1],55.8 nM
same,inhibition of growth at 10 µM,RPMI-8226,26%
same,inhibition of growth at 10 µM,ACHN,23%
same,inhibition of growth at 10 µM,TK-10,10%
same,inhibition of growth at 10 µM,UACC-62,30%
same,inhibition of growth at 10 µM,A549,19%
same,inhibition of growth at 10 µM,HCT-116,30%
same,inhibition of growth at 10 µM,OVCAR-5,11%
same,inhibition of growth at 10 µM,MCF7,20%
same,inhibition of growth at 10 µM,OVCAR-8,24%
same,inhibition of growth at 10 µM,NCI-H226,18%
same,inhibition of growth at 10 µM,K562,21%
same,inhibition of growth at 10 µM,HCT-15,12%
same,inhibition of growth at 10 µM,T47D,19%
same,inhibition of growth at 10 µM,CCRF-CEM,14%
same,inhibition of growth at 10 µM,SNB-75,27%
same,inhibition of growth at 10 µM,NCI-H460,22%
same,inhibition of growth at 10 µM,MDA-MB-231,10%
same,inhibition of growth at 10 µM,PC-3,24%
same,inhibition of growth at 10 µM,RXF 393,23%
same,inhibition of growth at 10 µM,NCI-H522,31%
same,inhibition of growth at 10 µM,UO-31,18%
same,inhibition of growth at 10 µM,MOLT-4,12%
same,inhibition of growth at 10 µM,HOP-62,13%
same,inhibition of growth at 10 µM,NCI/ADR-RES,16%
CCN1C(=O)/C(=N\Nc2ccc(S(N)(=O)=O)cc2)c2ccccc21,Ki,Carbonic anhydrase 9 [1],25.8 nM
CCOC(=O)CN1C(=O)/C(=N\Nc2ccc(S(N)(=O)=O)cc2)c2cc(Cl)ccc21,inhibition of growth at 10 µM,CAKI-1,24%
same,inhibition,Carbonic anhydrase 9 [2],66%
same,inhibition of growth at 10 µM,EKVX,16%
same,Ki,Carbonic anhydrase 9 [1],38.8 nM
same,inhibition of growth at 10 µM,RPMI-8226,11%
same,inhibition of growth at 10 µM,ACHN,30%
same,inhibition of growth at 10 µM,TK-10,29%
same,inhibition of growth at 10 µM,UACC-62,24%
same,inhibition of growth at 10 µM,A498,10%
same,inhibition of growth at 10 µM,SK-OV-3,10%
same,inhibition of growth at 10 µM,A549,17%
same,inhibition,Carbonic anhydrase 9 [3],42%
same,inhibition of growth at 10 µM,HCT-116,10%
same,inhibition of growth at 10 µM,MCF7,21%
same,inhibition of growth at 10 µM,OVCAR-4,10%
same,inhibition of growth at 10 µM,NCI-H226,18%
same,inhibition of growth at 10 µM,DU-145,10%
same,inhibition,Carbonic anhydrase 9 [4],11%
same,inhibition of growth at 10 µM,KM12,12%
same,inhibition of growth at 10 µM,K562,15%
same,inhibition of growth at 10 µM,SW-620,10%
same,inhibition of growth at 10 µM,NCI-H522,18%
same,inhibition of growth at 10 µM,IGROV-1,13%
same,inhibition of growth at 10 µM,786-0,10%
same,inhibition of growth at 10 µM,UO-31,18%
same,inhibition,Carbonic anhydrase 9 [5],76%
same,inhibition of growth at 10 µM,MOLT-4,21%
CN1C(=O)/C(=N\Nc2ccc(S(N)(=O)=O)cc2)c2cc(Br)ccc21,Ki,Carbonic anhydrase 9 [1],40.1 nM
CCCN1C(=O)/C(=N\Nc2ccc(S(N)(=O)=O)cc2)c2ccccc21,Ki,Carbonic anhydrase 9 [1],28.6 nM
CCN1C(=O)/C(=N\Nc2ccc(S(N)(=O)=O)cc2)c2cc(Cl)ccc21,Ki,Carbonic anhydrase 9 [1],8.4 nM
NS(=O)(=O)c1ccc(N/N=C2\C(=O)Nc3ccccc32)cc1,Ki,Carbonic anhydrase 9 [1],15.5 nM
same,Ki,Carbonic anhydrase 12,30.1 nM
same,Ki,Carbonic anhydrase 1,467 nM
same,Ki,Carbonic anhydrase 2,63.3 nM
CCOC(=O)CN1C(=O)/C(=N\Nc2ccc(S(N)(=O)=O)cc2)c2ccccc21,Ki,Carbonic anhydrase 9 [1],15.9 nM
NS(=O)(=O)c1ccc(N/N=C2\C(=O)Nc3ccc(Br)cc32)cc1,Ki,Carbonic anhydrase 9 [1],24.8 nM
same,Ki,Carbonic anhydrase 12,65.9 nM
same,Ki,Carbonic anhydrase 1,3710 nM
same,Ki,Carbonic anhydrase 2,95.6 nM
CCN1C(=O)/C(=N\Nc2ccc(S(N)(=O)=O)cc2)c2cc(Br)ccc21,Ki,Carbonic anhydrase 9 [1],42 nM
